Patent publication EP0182152B1, “Antitumor antibiotics (LL-E33288 Complex)” (AMERICAN CYANAMID COMPANY, priority 1984, dated 1986)

Experiments:
Type in all cases: in vivo, BDF1 mice
[1] = tested on: lymphocytic leukemia L1210; experiment: Lymphocytic Leukemia L1210 Test
Source text: (§1) Certain in vivo testing systems and protocols have been developed by the National Cancer Institute for testing compounds to determine their suitability as anti-neoplastic agents. These have been reported in "Cancer Chemotherapy Reports", Part III, Vol. 3, No. 2 (1972), Geran, et al. These protocols have established standardized screening tests which are generally followed in the field of testing for antitumor agents. Of these systems, lymphocytic leukemia P388, melanotic melanoma B16, L1210 leukemia and colon 26 adenocarcinoma are particularly significant to the present invention. These neoplasms are utilized for testing as transplantable tumors in mice. Generally, significant anti-tumor activity, shown in these protocols by a percentage increase of mean survival times of the treated animals (T) over the control animals (C), is indicative of similar results in human leukemias and solid tumors.
The animals used were BDF1 mice, all of one sex, weighing a minimum of 17 g and all within a 3 g weight range. There were 6 mice in each test group and 18 in control groups. The tumor transplant was by intraperitoneal injection of 0.5 ml of lymphocytic leukemia L1210 at a concentration of 10^5 cells per mouse. LL-E33288 antibiotics were tested in the L1210 system both as the individual β1-Br component and as a complex of all components (Bromo-complex). The test compounds were administered on days 1, 5 and 9 or days 1 through 9 (relative to tumor inoculation) at various doses. The mice were weighed and survivors recorded on a regular basis for 30 days. The median survival time and the ratio of survival time for treated (T)/control (C) animals were calculated. The positive control compound was 1,4-dihydroxy-5,8-bis[[2-(2-hydroxyethylamino)ethyl]amino]anthraquinone dihydrochloride or Cisplatin given intraperitoneally at the indicated dose. If T/C X 100 (%) is 125 or over, the tested compound is considered to have significant anti-tumor activity.
(§2) In the same manner, the following iodo-components were tested for antineoplastic activity.

[2] = tested on: lymphocytic leukemia P388; experiment: Lymphocytic Leukemia P388 Test; settings: Table IX
Source text: as §1
The animals used were BDF1 mice, all of one sex, weighing a minimum of 17 g and all within a 3 g weight range. There were 5 or 6 mice per test group. The tumor transplant was by intraperitoneal injection of 0.5 ml of dilute ascitic fluid containing 10^6 cells of lymphocytic leukemia P388. LL-E33288 antibiotics were tested in the P388 system both as the individual β1-Br and […] components and as a complex of all components (Bromo-complex). The test compounds were administered intrapertioneally at a volume of 0.5 ml in 0.2% Klucel in normal saline on days 1, 5 and 9 (relative to tumor inoculation) at the indicated doses. The mice were weighed and the survivors recorded on a regular basis for 30 days. The median survival time and the ratio of survival time for treated (T)/control (C) animals were calculated. The positive control compound was Cisplatin given as an intraperitioneal injection in 0.5 ml of 0.2% Klucel on days 1, 5 and 9 at the indicated doses.
If T/C X 100 (%) is 125 or over, the tested compound is considered to have significant anti-tumor activity.
as §2

[3] = tested on: melanotic melanoma B16; experiment: Melanotic Melanoma B16 Test
Source text: as §1
The animals used were BDF1 mice, all of the same sex, weighing a minimum of 17 g and all within a 3 g weight range. There are normally 6 animals per test group. A 1 g portion of melanotic melanoma β16 tumor was homogenized in 10 ml of cold balanced salt solution and a 0.5 ml aliquot of the homogenate was implanted intraperitoneally into each of the test mice. LL-E33288 antibiotics were tested in the β16 system both as the individual β1-Br and γ1-Br components and as a complex of all components (Bromo-complex). The test compounds were administered intraperitioneally on days 1 through 9 (relative to tumor inoculation) at various doses. The mice were weighed and survivors recorded on a regular basis for 60 days. The median survival time and the ratio of survival time for treated (T)/control (C) animals were calculated. The positive control compounds were Cisplatin or Adriamycin. The results of this test appear in Table V. If T/C X 100 (%) is 125 or over, the tested compound is considered to have significant anti-tumor activity.
as §2

[4] = Table VI, days 1, 5 and 9 or days 1 through 9, dose 0.4 mg/kg, control 16.7 days
[5] = Table VI, days 1, 5 and 9 or days 1 through 9, dose 0.8 mg/kg, control 16.7 days
[6] = Table VI, i.p., dose 1.6 mg/kg, control 16.7 days
[7] = Table XI, dose 0.4 mg/kg, control 9 days
[8] = Table XI, dose 0.8 mg/kg, control 9 days
[9] = Table XI, dose 1.6 mg/kg, control 9 days
[10] = Table XI, dose 3.2 mg/kg, control 9 days
[11] = Test 1, dose 1.6 mg/kg, control 13 days
[12] = Test 2, dose 0.8 mg/kg, control 11 days
[13] = Test 2, dose 1.6 mg/kg, control 11 days
[14] = Table V, dose 0.4 mg/kg, control 19 days, survivors recorded for 60 days
[15] = Table V, dose 0.8 mg/kg, control 19 days, survivors recorded for 60 days
[16] = Table X, dose 0.2 mg/kg, control value not given
[17] = Table X, dose 0.4 mg/kg, control value not given
[18] = Table X, dose 0.8 mg/kg, control value not given

Cl.Cl.O=C1c2c(O)ccc(O)c2C(=O)c2c(NCCNCCO)ccc(NCCNCCO)c21 [Novantrone®, 1,4-dihydroxy-5,8-bis[[2-(2-hydroxyethylamino)ethyl]amino]anthraquinone dihydrochloride]
Median Survival [1, 4]: 30 days
T/C x 100 [1, 4]: 180%
Median Survival [1, 5]: 30 days
T/C x 100 [1, 5]: 180%
Median Survival [1, 6]: 30 days
T/C x 100 [1, 6]: 180%
Median Survival [1, 7]: 11 days
T/C x 100 [1, 7]: 122%
Median Survival [1, 8]: 12 days
T/C x 100 [1, 8]: 133%
Median Survival [1, 9]: 11.5 days
T/C x 100 [1, 9]: 128%
Median Survival [1, 10]: 15 days
T/C x 100 [1, 10]: 167%
Median Survival [2, 11]: 22.5 days
T/C x 100 [2, 11]: 173%
Median Survival [2, 12]: 16 days
T/C x 100 [2, 12]: 145%
Median Survival [2, 13]: 19 days
T/C x 100 [2, 13]: 173%

COc1cccc2c1C(=O)c1c(O)c3c(c(O)c1C2=O)C[C@@](O)(C(=O)CO)C[C@@H]3O[C@H]1C[C@H](N)[C@H](O)[C@H](C)O1 [Adriamycin]
Median Survival [3, 14]: > 60 days
T/C x 100 [3, 14]: > 316%
Median Survival [3, 15]: > 60 days
T/C x 100 [3, 15]: > 316%
Median Survival [3, 16]: 34.5 days
T/C x 100 [3, 16]: 203%
Median Survival [3, 17]: 40 days
T/C x 100 [3, 17]: 235%
Median Survival [3, 18]: 48 days
T/C x 100 [3, 18]: 282%
